Source: patent US10604523B2, “1-aryl-4-methyl-[1,2,4]triazolo[4,3-a]quinoxaline derivatives” (Janssen Pharmaceutica NV, priority 2011, dated 2020)
Like-named read-outs stand apart in the source and are kept apart here.

Columns and labels:
[1] = system: Apomorphine-induced agitation; assay: Reversal of Apomorphine-induced Agitation in Rats (APO); format: in vivo, rat; details: for SC Dose at max effect / SC Max effect (cumulative agitation score over 60 min) / SC LAD (lowest active dose): subcutaneous route; for SC Max effect (cumulative agitation score over 60 min) / PO Max effect (cumulative agitation score over 60 min): apomorphine 1.0 mg/kg i.v.; for SC LAD (lowest active dose) / PO LAD (lowest active dose): lowest dose at which ≥67% tested animals respond
Protocol: Apomorphine (1.0 mg/kg, i.v.)-induced agitation was scored every 5 min over the first hour after injection of apomorphine. The score system was: (3) pronounced, (2) moderate, (1) slight, and (0) absent. […] For the present purpose, the cumulative agitation score over the whole 60-min observation period was used as a measure to describe the maximum effect (Max effect).

[2] = target: T1, Rat recombinant PDE10A (rPDE10A2) (Rattus norvegicus, UniProt Q9QYJ6); assay: In vitro assay PDE10A (SPA, 3H-cAMP); format: biochemical; details: read-out: PIC50 PDE10 (converted)
T1 construct: made in house; host or cells: Sf9 insect cells (baculovirus)
T1 sequence (Q9QYJ6 1-794): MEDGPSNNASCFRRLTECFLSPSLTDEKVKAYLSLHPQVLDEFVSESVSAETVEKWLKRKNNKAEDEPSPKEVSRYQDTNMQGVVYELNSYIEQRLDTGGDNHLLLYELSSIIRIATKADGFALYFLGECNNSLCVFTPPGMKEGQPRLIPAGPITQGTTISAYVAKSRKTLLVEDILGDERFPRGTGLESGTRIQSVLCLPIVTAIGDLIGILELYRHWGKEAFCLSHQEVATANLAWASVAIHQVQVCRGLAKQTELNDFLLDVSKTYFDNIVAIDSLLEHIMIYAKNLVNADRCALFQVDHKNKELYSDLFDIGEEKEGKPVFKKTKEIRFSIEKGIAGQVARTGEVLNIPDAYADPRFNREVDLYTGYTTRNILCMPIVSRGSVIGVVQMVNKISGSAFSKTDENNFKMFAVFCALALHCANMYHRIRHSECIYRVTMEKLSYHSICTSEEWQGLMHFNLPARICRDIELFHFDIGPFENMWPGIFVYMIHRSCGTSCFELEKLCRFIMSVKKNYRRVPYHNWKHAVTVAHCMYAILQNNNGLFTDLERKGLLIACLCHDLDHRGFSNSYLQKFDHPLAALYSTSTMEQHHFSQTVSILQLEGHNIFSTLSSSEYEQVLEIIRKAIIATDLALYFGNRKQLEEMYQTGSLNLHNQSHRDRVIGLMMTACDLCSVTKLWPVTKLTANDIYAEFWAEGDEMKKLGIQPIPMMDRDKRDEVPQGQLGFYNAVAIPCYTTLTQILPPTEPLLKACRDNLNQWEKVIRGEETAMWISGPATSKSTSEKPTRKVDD

[3] = target: T2, Human recombinant PDE2A (hPDE2A) (Homo sapiens, UniProt O00408); assay: In vitro assay PDE2A (SPA, 3H-cGMP); format: biochemical; details: read-out: pIC50 PDE2 (converted)
T2 construct: made in house; host or cells: Sf9 insect cells (baculovirus)
T2 sequence (O00408 whole entry): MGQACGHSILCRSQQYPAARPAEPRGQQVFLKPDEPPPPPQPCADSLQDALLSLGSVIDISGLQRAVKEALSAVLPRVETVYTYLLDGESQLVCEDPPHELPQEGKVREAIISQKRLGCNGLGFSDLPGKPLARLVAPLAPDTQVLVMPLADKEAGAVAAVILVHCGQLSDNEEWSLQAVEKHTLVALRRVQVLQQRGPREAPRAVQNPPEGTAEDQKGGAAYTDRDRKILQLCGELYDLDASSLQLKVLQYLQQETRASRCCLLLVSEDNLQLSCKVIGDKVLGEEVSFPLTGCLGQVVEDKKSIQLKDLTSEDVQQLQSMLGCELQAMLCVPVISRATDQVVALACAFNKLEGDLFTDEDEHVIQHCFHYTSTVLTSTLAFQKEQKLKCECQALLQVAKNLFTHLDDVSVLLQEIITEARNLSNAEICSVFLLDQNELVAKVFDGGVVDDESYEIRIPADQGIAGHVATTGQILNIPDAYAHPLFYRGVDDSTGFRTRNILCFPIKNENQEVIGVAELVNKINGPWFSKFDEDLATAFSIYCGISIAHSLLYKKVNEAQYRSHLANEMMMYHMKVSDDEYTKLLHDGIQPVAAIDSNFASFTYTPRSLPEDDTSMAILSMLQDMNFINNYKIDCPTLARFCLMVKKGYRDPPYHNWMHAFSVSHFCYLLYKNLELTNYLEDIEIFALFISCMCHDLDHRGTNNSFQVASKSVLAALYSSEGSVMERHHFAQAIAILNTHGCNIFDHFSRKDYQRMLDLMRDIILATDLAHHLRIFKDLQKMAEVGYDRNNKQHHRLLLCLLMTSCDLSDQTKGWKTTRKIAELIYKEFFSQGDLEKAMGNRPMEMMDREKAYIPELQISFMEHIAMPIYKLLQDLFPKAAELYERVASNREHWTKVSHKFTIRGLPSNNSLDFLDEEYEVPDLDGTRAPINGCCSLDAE

[4] = -log IC50 expressed in mol/L, rPDE10A2, 60 nM cAMP

Row | Compound | IC50 [2] | IC50 [3] | IC50 [2, 4] | SC Dose at max effect [1] | SC Max effect (cumulative agitation score over 60 min) [1] | SC LAD (lowest active dose) [1] | PO Dose at Max Effect [1] | PO Max effect (cumulative agitation score over 60 min) [1] | PO LAD (lowest active dose) [1]
1 | Cc1nc2ccc(C(=O)NCc3cccnc3)cc2n2c(-c3ccccc3)nnc12 [Compound B-56] | 44.7 nM | 3.98 nM | – | – | – | – | 10 mg/kg | 21 | > 10 mg/kg
2 | CCOc1ccc(Cl)c(-c2nnc3c(C)nc4ccc(N5CCN(C)CC5)cc4n23)c1 [Compound B-102] | 162 nM | 18.2 nM | – | 10 mg/kg | 21 | > 10 mg/kg | – | – | –
3 | CCNC(=O)c1ccc2nc(C)c3nnc(-c4ccccc4OC)n3c2c1 [Compound B-78] | 93.3 nM | 7.59 nM | – | – | – | – | 10 mg/kg | 21 | > 10 mg/kg
4 | CCOc1ccc(Cl)c(-c2nnc3c(C)nc4ccc(CNc5cccnc5)cc4n23)c1 [Compound B-103] | 178 nM | 18.6 nM | – | 10 mg/kg | 21 | > 10 mg/kg | – | – | –
5 | Cc1nc2ccc(C(=O)NCc3ccccn3)cc2n2c(-c3cc(F)ccc3Cl)nnc12 [Compound B-39] | 24 nM | 1 nM | – | – | – | – | 10 mg/kg | 21 | > 10 mg/kg
6 | CCOc1ccc(Cl)c(-c2nnc3c(C)nc4ccc(Br)cc4n23)c1 [Compound B-85] | 123 nM | 10.7 nM | – | – | – | – | 10 mg/kg | 21 | > 10 mg/kg
7 | Cc1ncccc1-c1nnc2c(C)nc3ccc(C(F)(F)F)cc3n12 [Compound B-167] | 263 nM | 95.5 nM | – | – | – | – | 10 mg/kg | 19 | 10 mg/kg
8 | Cc1nc2ccc(C(=O)NCc3ccccc3)cc2n2c(-c3ccccc3Cl)nnc12 [Compound B-34] | 12 nM | 0.372 nM | – | – | – | – | 2.5 mg/kg | 22 | > 2.5 mg/kg
9 | COc1ccc(-c2nnc3c(C)nc4ccc(C(=O)NCc5ccccn5)cc4n23)c(Cl)c1 [Compound B-74] | 129 nM | 6.92 nM | – | – | – | – | 10 mg/kg | 21 | > 10 mg/kg
10 | Cc1nc2ccc(C(=O)NCCc3ccccc3)cc2n2c(-c3ccccc3)nnc12 [Compound B-54] | 93.3 nM | 3.47 nM | – | – | – | – | 2.5 mg/kg | 22 | > 2.5 mg/kg

Second part, led by results:

Row | IC50 [2] | IC50 [3] | IC50 [2, 4] | Compound | SC Dose at max effect [1] | SC Max effect (cumulative agitation score over 60 min) [1] | SC LAD (lowest active dose) [1] | PO Dose at Max Effect [1] | PO Max effect (cumulative agitation score over 60 min) [1] | PO LAD (lowest active dose) [1]
11 | 20 nM | 5.5 nM | – | Cc1nc2ccc(CN3CCC(F)CC3)cc2n2c(-c3ccccc3Cl)nnc12 [Compound B-61] | 10 mg/kg | 15 | 10 mg/kg | – | – | –
12 | – | 2.51 nM | 155 nM | CCNC(=O)c1ccc2nc(C)c3nnc(-c4ccccc4F)n3c2c1 [Compound B-51] | – | – | – | 10 mg/kg | 21 | > 10 mg/kg
13 | 19.1 nM | 6.31 nM | – | Cc1nc2ccc(NCCN3CCOCC3)cc2n2c(-c3ccccc3Cl)nnc12 [Compound B-71] | 10 mg/kg | 15 | 10 mg/kg | – | – | –
14 | 61.7 nM | 2.09 nM | – | Cc1nc2ccc(C(=O)NCCN3CCCC3)cc2n2c(-c3ccccc3Cl)nnc12 [Compound B-48] | 10 mg/kg | 24 | > 10 mg/kg | – | – | –
15 | 6.61 nM | 5.01 nM | – | Cc1nc2ccc(NCCc3ccccn3)cc2n2c(-c3ccccc3Cl)nnc12 [Compound B-60] | – | – | – | 10 mg/kg | 21 | > 10 mg/kg
16 | – | 9.55 nM | 37.2 nM | Cc1nc2ccc(CN3CCC(O)CC3)cc2n2c(-c3ccccc3Cl)nnc12 [Compound B-81] | 10 mg/kg | 19 | 10 mg/kg | – | – | –
